Data reported in US20070191451A1, “USE OF BENZO-HETEROARYL SULFAMIDE DERIVATIVES AS NEUROPROTECTIVE AGENTS” (priority 2006, published 2007).

Assays:
Rat Hippocampal Cultures = assay: Cell Titer Glo/Cell Viability in vitro assay, rat hippocampal cultures, insult with 150 μM H2O2; type: cell-based; details: for Cell Titer Glo/Cell Viability / Cell Titer Glo/Cell Viability, Mean: insult with 150 μM H2O2; for Cell Titer Glo/Cell Viability, Mean: mean of 3 plates, n=9
Experimental: (§1) The assay was run according to the procedure listed within the insert of the kit purchased from Promega (see attachment at the end of the application).
(§2) Cell cultures were prepared as follows. Dissociated hippocampal and cortical cell cultures were established from embryonic day 18 rat fetuses. The fetuses were removed via cesarean section from pregnant dams (Harlan Sprague-Dawley) anesthetized with halothane according to the AVMA Panel on Euthanasia. Pups were decapitated and the brains were removed and placed in Hank's Balanced Salt solution (1×HBSS; Gibco, Rockville, Md.). The hippocampi and cortices were dissected out and pooled according to tissue-type. Tissue was trypsinized for 15 min (1 mg/ml trypsin-HBSS; Worthington, Lakewood, N.J.), rinsed with fresh HBSS, incubated in trypsin inhibitor (1 mg/ml; Sigma, St. Louis, Mo.) for 5 min, rinsed again with fresh HBSS and then triturated in 1 ml fresh HBSS with a fire-polished glass pipette. Dissociated cells were seeded at 10,000 cells/well onto poly-D-lysine coated 96-well plates (BD BioScience, Bedford, Mass.) containing 100 ul/well Eagle's Minimal Essential Media (MEM; Gibco) supplemented with 26 mM NaHCO3 (Sigma), 40 mM glucose (Sigma), 20 mM KCl (Sigma), 1 mM sodium pyruvate (Sigma), 10% (v/v) heat-inactivated fetal bovine serum (Hyclone, Logan, Utah), and 0.001% gentamicin sulfate (Sigma) (pH 7.4). Serum-free cultures were plated and maintained in Neurobasal medium+B27 supplement (Gibco). Cells were allowed to attach for 24h in a humidified 37° C. 5% CO2 incubator before experimental treatment.
(§3) Test compounds were prepared as follows: A 10 mM stock in DMSO of each compound was diluted 1:50 in DPBS rendering a final stock of 200 μM. […] Equal amounts of vehicle or diluted compound were added to each culture well.
(§4) A 30% stock solution of hydrogen peroxide (H2O2; Sigma) was diluted with DPBS 1:100 to yield a […] stock. Five microliters of vehicle or H2O2 stock solution was added to each 100 ul culture well to yield a final concentration of 150 uM.
(§5) Note that in the data listed below, each plate was run in triplicate for a total of n=9.

[1] = tested on: Rat Cerebral Cortical Cultures; assay: Cell Titer Glo/Cell Viability in vitro assay, rat cerebral cortical cultures, insult with 150 μM H2O2; type: cell-based; details: for Cell Titer Glo/Cell Viability, Mean: mean of 3 plates
Experimental: as §1, §2, §3, §4, §5

[2] = compound 0.1 μM, Plate 1 (run in triplicate)
[3] = compound 0.1 μM, Plate 2 (run in triplicate)
[4] = compound 0.1 μM, Plate 3 (run in triplicate)
[5] = compound 1 μM, Plate 1 (run in triplicate)
[6] = compound 1 μM, Plate 2 (run in triplicate)
[7] = compound 1 μM, Plate 3 (run in triplicate)
[8] = compound 10 μM, Plate 1 (run in triplicate)
[9] = compound 10 μM, Plate 2 (run in triplicate)
[10] = compound 10 μM, Plate 3 (run in triplicate)

## NS(=O)(=O)NCc1csc2ccccc12 [Compound #1, N-(benzo[b]thien-3-ylmethyl)-sulfamide]
Rat Hippocampal Cultures; conclusion in words from the data of Tables 4 and 5, H2O2 insult
  protecting neurons from death and/or damage from oxidative stress or oxidative injury: effective at protecting neurons from death and/or damage
Rat Hippocampal Cultures; [2]
  Cell Titer Glo/Cell Viability: 28
Rat Hippocampal Cultures; [3]
  Cell Titer Glo/Cell Viability: 16
Rat Hippocampal Cultures; [4]
  Cell Titer Glo/Cell Viability: 17
Rat Hippocampal Cultures; compound 0.1 μM
  Cell Titer Glo/Cell Viability, Mean: 20
Rat Hippocampal Cultures; [5]
  Cell Titer Glo/Cell Viability: 30
Rat Hippocampal Cultures; [6]
  Cell Titer Glo/Cell Viability: 12
Rat Hippocampal Cultures; [7]
  Cell Titer Glo/Cell Viability: 13
Rat Hippocampal Cultures; compound 1 μM
  Cell Titer Glo/Cell Viability, Mean: 18
Rat Hippocampal Cultures; [8]
  Cell Titer Glo/Cell Viability: 41
Rat Hippocampal Cultures; [9]
  Cell Titer Glo/Cell Viability: 46
Rat Hippocampal Cultures; [10]
  Cell Titer Glo/Cell Viability: 45
Rat Hippocampal Cultures; compound 10 μM, **p < 0.01 (Kruskal-Wallis, Dunn's post-hoc)
  Cell Titer Glo/Cell Viability, Mean: 44**

## NS(=O)(=O)NCc1csc2ccc(F)cc12 [Compound #8, N-[(5-fluorobenzo[b]thien-3-yl)methyl]-sulfamide]
[1]; [2]
  Cell Titer Glo/Cell Viability: 16
[1]; [3]
  Cell Titer Glo/Cell Viability: 43
[1]; [4]
  Cell Titer Glo/Cell Viability: 19
[1]; compound 0.1 μM, n=9
  Cell Titer Glo/Cell Viability, Mean: 26
[1]; [5]
  Cell Titer Glo/Cell Viability: 13
[1]; [6]
  Cell Titer Glo/Cell Viability: 24
[1]; [7]
  Cell Titer Glo/Cell Viability: 12
[1]; compound 1 μM, n=9
  Cell Titer Glo/Cell Viability, Mean: 16
[1]; [8]
  Cell Titer Glo/Cell Viability: 22
[1]; [9]
  Cell Titer Glo/Cell Viability: 27
[1]; [10]
  Cell Titer Glo/Cell Viability: 30
[1]; compound 10 μM, n=9, *p < 0.05 (Kruskal-Wallis, Dunn's post-hoc)
  Cell Titer Glo/Cell Viability, Mean: 26*
